Measurements taken from US20260158014A1, “METHODS OF ADMINISTERING VOXELOTOR” (Global Blood Therapeutics, Inc., priority 2021, published 2026).

How the values were obtained:
[1] = Physicochemical description (solubility, hygroscopicity); settings: crystalline Form II free base
[2] = biological target: T1, CYP2C8 (Homo sapiens, UniProt P10632); assay: Effect of voxelotor on CYP450 enzymes in vivo: CYP2C8
T1 construct: endogenous in cells; host or cells: human subjects (in vivo)

[3] = Clinical pharmacokinetics after oral administration; assay type: in vivo, human
[4] = biological target: T2, CYP2C9 (Homo sapiens, UniProt P11712); assay: Clinical probe-substrate DDI study: S-warfarin; assay type: in vivo
T2 construct: endogenous in cells; host or cells: healthy human subjects (in vivo)
T2 sequence (P11712 whole entry): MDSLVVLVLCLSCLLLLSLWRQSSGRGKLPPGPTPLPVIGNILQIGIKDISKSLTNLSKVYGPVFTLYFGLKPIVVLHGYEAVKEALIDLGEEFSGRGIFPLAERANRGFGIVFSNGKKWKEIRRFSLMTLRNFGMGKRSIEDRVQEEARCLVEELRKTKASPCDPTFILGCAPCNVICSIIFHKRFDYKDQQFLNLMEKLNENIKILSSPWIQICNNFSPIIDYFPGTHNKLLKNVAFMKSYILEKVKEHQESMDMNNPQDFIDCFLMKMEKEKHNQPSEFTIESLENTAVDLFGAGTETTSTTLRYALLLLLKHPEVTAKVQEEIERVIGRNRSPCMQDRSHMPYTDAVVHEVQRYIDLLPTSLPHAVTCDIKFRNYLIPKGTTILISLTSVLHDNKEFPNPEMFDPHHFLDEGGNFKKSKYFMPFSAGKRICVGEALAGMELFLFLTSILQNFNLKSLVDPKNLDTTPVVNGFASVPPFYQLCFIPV
Description: (§1) The effect of voxelotor on the pharmacokinetics (PK) of a single dose of caffeine, warfarin sodium, omeprazole, and midazolam hydrochloride, which are probe substrates for cytochrome P450 (CYP)1A2, CYP2C9, CYP2C19, and CYP3A4, respectively, were studied in healthy subjects. During Period 1, subjects received a single dose of caffeine 100 mg, warfarin sodium 10 mg+vitamin K 10 mg, omeprazole 20 mg, and midazolam hydrochloride 2 mg on Day 1. During Period 2, subjects received voxelotor 900 mg QD on Days 1 and 2 followed by 600 mg QD on Day 3, a single dose of caffeine 100 mg, warfarin sodium 10 mg+vitamin K 10 mg, omeprazole 20 mg, and midazolam hydrochloride 2 mg on Day 4, and voxelotor 600 mg QD on Days 4 through 7.
(§2) Whole blood and plasma concentrations of voxelotor and plasma concentrations of caffeine, paraxanthine, S-warfarin, omeprazole, 5-hydroxyomeprazole, midazolam, and 1-hydroxymidazolam were determined using validated assays.

[5] = biological target: MATE2-K (Homo sapiens, UniProt Q86VL8); assay: In vitro transporter study; assay type: in vitro ADME
MATE2-K, sequence (Q86VL8 1-566 isoform Q86VL8-3, species assumed): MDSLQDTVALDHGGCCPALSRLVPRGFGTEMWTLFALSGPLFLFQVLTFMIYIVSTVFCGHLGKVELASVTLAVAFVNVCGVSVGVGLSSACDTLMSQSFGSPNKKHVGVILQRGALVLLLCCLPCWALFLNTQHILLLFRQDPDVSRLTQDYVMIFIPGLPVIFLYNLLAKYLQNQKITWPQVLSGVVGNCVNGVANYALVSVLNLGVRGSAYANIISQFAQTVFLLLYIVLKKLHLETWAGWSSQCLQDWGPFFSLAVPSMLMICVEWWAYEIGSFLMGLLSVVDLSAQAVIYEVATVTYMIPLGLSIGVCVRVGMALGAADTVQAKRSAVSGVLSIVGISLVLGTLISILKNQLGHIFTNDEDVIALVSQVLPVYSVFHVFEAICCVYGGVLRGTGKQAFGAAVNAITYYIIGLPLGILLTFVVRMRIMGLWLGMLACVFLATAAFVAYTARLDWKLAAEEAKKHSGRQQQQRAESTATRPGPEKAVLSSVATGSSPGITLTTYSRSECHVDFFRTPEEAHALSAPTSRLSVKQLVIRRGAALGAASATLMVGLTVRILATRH

[6] = system: pregnant rats; assay: Pre- and postnatal development study in rats; assay type: in vivo, rat
Description: In a pre- and postnatal development study, voxelotor was administered orally to pregnant rats at 15, 50 and 250 mg/kg/day (gestation day 6 through lactation day 20). Maternal gestational body weights were decreased at 250 mg/kg/day, which continued to the end of lactation.

[7] = biological target: T3, CYP2C19 (Homo sapiens, UniProt P33261); assay: Clinical probe-substrate DDI study: omeprazole; assay type: in vivo
T3 construct: endogenous in cells; host or cells: healthy human subjects (in vivo)
T3 sequence (P33261 whole entry): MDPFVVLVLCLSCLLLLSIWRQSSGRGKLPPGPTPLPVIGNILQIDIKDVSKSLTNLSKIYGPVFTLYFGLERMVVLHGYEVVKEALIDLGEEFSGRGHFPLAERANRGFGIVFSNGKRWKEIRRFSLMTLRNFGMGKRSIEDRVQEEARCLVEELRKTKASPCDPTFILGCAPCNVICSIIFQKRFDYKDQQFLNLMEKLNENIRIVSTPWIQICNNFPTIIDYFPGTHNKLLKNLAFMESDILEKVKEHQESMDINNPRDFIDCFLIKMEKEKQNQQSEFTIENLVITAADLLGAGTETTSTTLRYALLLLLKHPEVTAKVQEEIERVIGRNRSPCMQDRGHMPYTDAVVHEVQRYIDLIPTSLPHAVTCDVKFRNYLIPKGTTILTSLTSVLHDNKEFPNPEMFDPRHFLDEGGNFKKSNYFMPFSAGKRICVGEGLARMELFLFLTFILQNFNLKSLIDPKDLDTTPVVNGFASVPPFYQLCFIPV
Description: as §1, §2

[8] = PK in subjects with hepatic impairment; assay type: in vivo, human
[9] = system: patients treated; assay: Hypersensitivity reactions in treated patients; settings: human, in vivo
[10] = biological target: MATE1 (Homo sapiens, UniProt Q96FL8); assay: In vitro transporter study; assay type: in vitro ADME
MATE1, sequence (Q96FL8 whole entry, species assumed): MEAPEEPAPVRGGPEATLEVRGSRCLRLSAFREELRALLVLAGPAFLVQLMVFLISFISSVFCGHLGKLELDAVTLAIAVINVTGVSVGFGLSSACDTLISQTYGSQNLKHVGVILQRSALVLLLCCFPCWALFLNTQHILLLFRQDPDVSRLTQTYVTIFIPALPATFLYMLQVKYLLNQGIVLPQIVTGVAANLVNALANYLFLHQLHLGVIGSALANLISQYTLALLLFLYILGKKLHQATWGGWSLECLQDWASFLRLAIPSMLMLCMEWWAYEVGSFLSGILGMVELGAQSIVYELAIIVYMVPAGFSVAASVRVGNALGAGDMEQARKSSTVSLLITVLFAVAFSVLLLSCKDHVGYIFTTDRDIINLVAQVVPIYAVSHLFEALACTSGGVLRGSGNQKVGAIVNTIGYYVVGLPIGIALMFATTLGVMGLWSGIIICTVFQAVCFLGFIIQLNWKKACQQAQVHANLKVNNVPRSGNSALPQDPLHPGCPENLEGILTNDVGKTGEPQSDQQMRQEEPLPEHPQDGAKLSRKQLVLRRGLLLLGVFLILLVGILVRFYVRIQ

[11] = system: patients with SCD aged 4 to 11 years; assay: Open-label Phase 2 trial (part C): Hb response and hemolysis markers; assay type: in vivo, human
Source text: Patients and treatment: Patients with SCD were screened at 15 study sites in the United States, Lebanon, and the United Kingdom. Key inclusion criteria included patients with SCD (homozygous sickle cell disease [HbSS] or HbSβ^0 genotypes), aged 4 to 11 years, and with hemoglobin (Hb) concentrations ≤10.5 g/dL at baseline. Concomitant hydroxyurea was allowed if the dose was stable for ≥3 months at enrollment, with no anticipated need for dose adjustment during the study. There was no eligibility requirement regarding prior VOCs. Patients who were receiving chronic red blood cell transfusion therapy, had received a transfusion in the past 30 days, or had been hospitalized for a VOC, acute chest syndrome, splenic sequestration crisis, or dactylitis within 14 days before providing informed consent were excluded.
All patients received dispersible voxelotor tablets. Patients aged 4 to 11 years received once-daily voxelotor weight-based-dosing (Table 1).
Statistical analyses: All efficacy and safety assessments were summarized with descriptive statistics. Population PK analyses using nonlinear mixed-effects modeling were performed to characterize voxelotor PK in plasma and whole blood.
Patients 4 to <12 years received tablets for oral suspension based on body weight at baseline. OXBRYTA doses of 600 mg, 900 mg, or 1,500 mg once daily were administered to patients weighing 10 kg to <20 kg, 20 kg to <40 kg, or ≥40 kg, respectively. Patients 12 to <17 years received OXBRYTA 1,500 mg once daily.
Patients were included if their baseline hemoglobin (Hb) was <10.5 g/dL. Eligible patients on stable doses of hydroxyurea for at least 90 days were allowed to continue hydroxyurea therapy throughout the study.
Efficacy was based on Hb response rate, which is defined as a Hb increase of >1 g/dL from baseline to Week 24.

[12] = Excretion of radiolabeled voxelotor; assay type: in vivo
[13] = biological target: BCRP (Homo sapiens, UniProt Q9UNQ0); assay: In vitro transporter study; assay type: in vitro ADME
BCRP, sequence (Q9UNQ0 whole entry, species assumed): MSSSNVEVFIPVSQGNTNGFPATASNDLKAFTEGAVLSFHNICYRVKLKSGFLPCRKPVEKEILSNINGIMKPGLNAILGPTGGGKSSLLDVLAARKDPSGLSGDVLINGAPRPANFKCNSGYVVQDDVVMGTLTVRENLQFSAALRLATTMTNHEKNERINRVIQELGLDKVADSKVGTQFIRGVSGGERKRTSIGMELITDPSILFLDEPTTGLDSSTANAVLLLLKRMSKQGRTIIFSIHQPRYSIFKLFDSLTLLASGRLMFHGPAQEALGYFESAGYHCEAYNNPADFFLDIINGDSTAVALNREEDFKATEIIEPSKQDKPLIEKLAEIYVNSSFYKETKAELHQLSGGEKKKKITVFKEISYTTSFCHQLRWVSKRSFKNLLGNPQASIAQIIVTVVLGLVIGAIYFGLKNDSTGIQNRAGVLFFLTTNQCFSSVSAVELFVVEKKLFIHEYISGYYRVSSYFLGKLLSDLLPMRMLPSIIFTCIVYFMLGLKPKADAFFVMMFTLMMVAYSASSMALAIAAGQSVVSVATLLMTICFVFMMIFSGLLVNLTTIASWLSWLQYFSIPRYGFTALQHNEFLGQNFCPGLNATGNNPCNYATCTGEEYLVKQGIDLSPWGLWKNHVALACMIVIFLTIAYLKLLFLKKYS

[14] = biological target: OAT3 (Homo sapiens, UniProt Q8TCC7); assay: In vitro transporter study; assay type: in vitro ADME
OAT3, sequence (Q8TCC7 whole entry, species assumed): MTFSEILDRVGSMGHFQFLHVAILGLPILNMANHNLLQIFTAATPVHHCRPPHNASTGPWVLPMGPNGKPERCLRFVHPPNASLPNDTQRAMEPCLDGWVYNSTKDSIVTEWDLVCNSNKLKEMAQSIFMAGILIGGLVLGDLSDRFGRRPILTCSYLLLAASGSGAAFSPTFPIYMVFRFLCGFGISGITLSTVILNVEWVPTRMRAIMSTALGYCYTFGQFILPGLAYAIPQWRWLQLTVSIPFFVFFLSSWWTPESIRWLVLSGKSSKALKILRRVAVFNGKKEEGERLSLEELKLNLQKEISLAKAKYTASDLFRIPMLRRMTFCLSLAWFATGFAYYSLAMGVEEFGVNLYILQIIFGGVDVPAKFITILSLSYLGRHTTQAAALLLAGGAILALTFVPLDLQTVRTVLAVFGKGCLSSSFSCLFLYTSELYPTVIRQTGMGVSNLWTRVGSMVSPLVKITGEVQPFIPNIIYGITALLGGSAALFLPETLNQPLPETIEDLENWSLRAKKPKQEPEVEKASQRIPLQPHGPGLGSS

[15] = system: rat; assay: Rat micronucleus assay; settings: in vivo
[16] = 4 to 11 years, weight-based dosing

T1 sequence (P10632 whole entry): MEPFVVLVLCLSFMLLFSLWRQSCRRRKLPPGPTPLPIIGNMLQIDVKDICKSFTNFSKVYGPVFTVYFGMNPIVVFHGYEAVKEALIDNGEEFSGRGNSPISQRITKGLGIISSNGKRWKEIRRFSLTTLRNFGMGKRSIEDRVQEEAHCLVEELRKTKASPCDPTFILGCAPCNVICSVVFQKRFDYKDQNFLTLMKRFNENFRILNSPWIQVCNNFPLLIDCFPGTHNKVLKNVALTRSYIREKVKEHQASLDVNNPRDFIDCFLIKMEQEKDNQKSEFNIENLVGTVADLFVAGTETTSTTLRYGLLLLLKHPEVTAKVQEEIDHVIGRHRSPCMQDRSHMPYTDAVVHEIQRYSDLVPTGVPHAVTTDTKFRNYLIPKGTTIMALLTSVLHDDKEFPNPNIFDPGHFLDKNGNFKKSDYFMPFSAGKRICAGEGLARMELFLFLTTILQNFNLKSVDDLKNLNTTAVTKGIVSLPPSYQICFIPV

CC(C)n1nccc1-c1ncccc1COc1cccc(O)c1C=O [voxelotor, 2-hydroxy-6-((2-(1-isopropyl-1H-pyrazol-5-yl)pyridin-3-yl)methoxy)benzaldehyde]
hygroscopicity [1]: non-hygroscopic
solubility in common organic solvents such as acetone and toluene [1]: highly soluble
solubility in water [1]: insoluble in water
CYP2C8 inhibition in vivo [2]: not
time to steady-state after repeated administration ([3]; patients with SCD): ≤ 8 days
dose linearity of PK ([3]; single or multiple doses, whole blood, plasma, RBCs): linear
effect of voxelotor on PK of CYP2C9 probe substrate S-warfarin ([4]; healthy subjects, voxelotor 900/600 mg QD, warfarin sodium 10 mg): no clinically meaningful effect
CYP2C9 inhibition in vivo ([4]; human, in vivo): not
MATE2-K inhibition [5]: not an inhibitor
maternal gestational body weights ([6]; 250 mg/kg/day, gestation day 6 through lactation day 20): decreased
findings in offspring ([6]; maternal dose 250 mg/kg/day): reduced survival and reduced body weights
exposure at 250 mg/kg/day relative to exposure in patients at recommended dose ([6]; maternal dose with offspring effects): approximately 2.8 times
effect of voxelotor on PK of CYP2C19 probe substrate omeprazole ([7]; healthy subjects, voxelotor 900/600 mg QD, omeprazole 20 mg): no clinically meaningful effect
CYP2C19 inhibition in vivo ([7]; human, in vivo): not
whole blood AUC higher vs normal hepatic function, mild hepatic impairment ([8]; Child Pugh A): 14%
whole blood AUC higher vs normal hepatic function, moderate hepatic impairment ([8]; Child Pugh B): 15%
whole blood AUC higher vs normal hepatic function, severe hepatic impairment ([8]; Child Pugh C): 90%
serious hypersensitivity reactions, patients treated [9]: < 1%
MATE1 inhibition [10]: not an inhibitor
mean change in Hb from baseline at week 24 ([11]; 4 to 11 years, once-daily weight-based 600/900/1500 mg dispersible tablets, n=34): 1.0 g/dL
patients with Hb response (>1.0 g/dL increase from baseline) at week 2 [11, 16]: 54.5%
patients with an increase in Hb of any magnitude from baseline at week 24 [11, 16]: 82%
patients with >2.0 g/dL increase in Hb from baseline at week 24 ([11]; 4 to 11 years, weight-based dosing, n=7/34): 21%
patients with >1.5 g/dL increase in Hb from baseline at week 24 ([11]; 4 to 11 years, weight-based dosing, n=12/34): 35%
patients with Hb response (increase >1.0 g/dL from baseline) at week 24 ([11]; 4 to 11 years, weight-based dosing, n=34): 47.1%
Hb response rate (Hb increase >1 g/dL from baseline to Week 24) ([11]; patients 4 to <12 years who took at least one dose (16/45)): 36%
mean percent change from baseline in indirect bilirubin ([11]; week 24, n=28): −38.6%
mean percent change from baseline in percent reticulocyte count ([11]; week 24, n=31): −3.25%
mean percent change from baseline in lactate dehydrogenase ([11]; week 24, n=32): −2.6%
dose and metabolites excreted in urine [12]: 35.5%
dose and metabolites excreted into feces [12]: approximately 62.6%
dose excreted unchanged in feces [12]: 33.3%
dose excreted unchanged in urine [12]: 0.08%
BCRP inhibition [13]: not an inhibitor
substrate of BCRP [13]: not a substrate
OAT3 inhibition [14]: not an inhibitor
genotoxicity, rat micronucleus assay [15]: not genotoxic
